Laboratory results as given in patent publication US20240391862A1, “(1,4,5-TRISUBSTITUTED-1H-PYRAZOL-3-YL)OXY-2-ALKOXY ALKYL ACIDS AND THEIR DERIVATIVES, THEIR SALTS AND THEIR USE AS HERBICIDAL AGENTS” (Bayer AKtiengesellschaft, priority 2021, published 2024).

How the values were obtained:
[1] = system: SETVI; test: Post-emergence herbicidal effect, greenhouse pot test; assay type: in vivo, Setaria viridis; conditions: Setaria viridis, 504 h, read-out: Post-emergence effect against SETVI in %
Description: (§1) • ALOMY: Alopecurus myosuroides SETVI: Setaria viridis • AVEFA: Avena fatua POLCO: Fallopia convolvulus • AMARE: Amaranthus retroflexus ECHCG: Echinochloa crus-galli • LOLRJ: Lolium rigidum STEME: Stellaria media • VERPE: Veronica persica MATIN: Tripleurospermum inodorum • DIGSA: Digitaria sanguinalis ABUTH: Abutylon threophrasti • TRZAS: Triticum aestivum VIOTR: Viola tricolor • BRSNW: Brassica napus ZEAMX: Zea mays • PHBPU: Ipomoea purpurea GLXMA: Glycine max • ORYSA: Oryza sativa HORMU: Hordeum murinum
(§2) Seeds of monocotyledonous and dicotyledonous weeds and crop plants are placed in sandy loam in plastic or organic planting pots, covered with soil and cultivated in a greenhouse under controlled growth conditions. 2 to 3 weeks after sowing, the trial plants are treated at the one-leaf stage. The compounds of the invention, formulated in the form of wettable powders (WP) or as emulsion concentrates (EC), are then sprayed onto the green parts of the plants as aqueous suspension or emulsion with addition of 0.5% additive at a water application rate of 600 l/ha (converted). After the test plants have been kept in the greenhouse under optimum growth conditions for about 3 weeks, the activity of the preparations is rated visually in comparison to untreated controls. For example, 100% activity=the plants have died, 0% activity=like control plants.
(§3) Tables 20a to 38c below show the effects/crop compatibilities of selected compounds of the general formula (I) on various harmful plants at an application rate corresponding to 20 to 320 g/ha, which were obtained by the trial procedure specified above.

[2] = system: ECHCG; test: as above; assay type: in vivo, Echinochloa crus-galli; conditions: Echinochloa crus-galli, 504 h; for pest or weed control at 80 g/ha / pest or weed control at 320 g/ha: read-out: Post-emergence effect against ECHCG in %
Description: as §1, §2, §3

[3] = system: ABUTH; test: as above; assay type: in vivo, Abutilon theophrasti; conditions: Abutilon theophrasti, 504 h, visual rating about 3 weeks after treatment, read-out: Post-emergence effect against ABUTH
Description: as §1, §2, §3

[4] = system: DIGSA; test: as above; assay type: in vivo, Digitaria sanguinalis; conditions: Digitaria sanguinalis, 504 h, visual rating about 3 weeks after treatment, read-out: Post-emergence effect against DIGSA
Description: as §1, §2, §3

[5] = system: ZEAMX; test: Post-emergence herbicidal effect and crop plant compatibility, greenhouse pot test; assay type: in vivo, Zea mays; conditions: Zea mays, 504 h, 20 g/ha, one-leaf stage, rated visually after about 3 weeks vs untreated controls, read-out: Post-emergence effect at 20 g/ha against ZEAMX in %
Description: as §1, §2, §3

[6] = system: MATIN; test: Post-emergence herbicidal effect, greenhouse pot test; assay type: in vivo, Tripleurospermum inodorum; conditions: Tripleurospermum inodorum, 504 h, read-out: Post-emergence effect against MATIN in %
Description: as §1, §2, §3

[7] = system: ALOMY; test: as above; assay type: in vivo, Alopecurus myosuroides; conditions: Alopecurus myosuroides, 504 h, visual rating about 3 weeks after treatment, read-out: Post-emergence effect against ALOMY
Description: as §1, §2, §3

[8] = system: AMARE; test: as above; assay type: in vivo, Amaranthus retroflexus; conditions: Amaranthus retroflexus, 504 h, visual rating about 3 weeks after treatment, read-out: Post-emergence effect against AMARE
Description: as §1, §2, §3

[9] = system: AVEFA; test: as above; assay type: in vivo, Avena fatua; conditions: Avena fatua, 504 h, visual rating about 3 weeks after treatment, read-out: Post-emergence effect against AVEFA
Description: as §1, §2, §3

[10] = system: PHBPU; test: as above; assay type: in vivo, Ipomoea purpurea; conditions: Ipomoea purpurea, 504 h, read-out: Post-emergence effect against PHBPU in %
Description: as §1, §2, §3

[11] = system: VERPE; test: as above; assay type: in vivo, Veronica persica; conditions: Veronica persica, 504 h, read-out: Post-emergence effect against VERPE in %
Description: as §1, §2, §3

[12] = system: VIOTR; test: as above; assay type: in vivo, Viola tricolor; conditions: Viola tricolor, 504 h, read-out: Post-emergence effect against VIOTR in %
Description: as §1, §2, §3

[13] = system: LOLRI; test: as above; assay type: in vivo, Lolium rigidum; conditions: Lolium rigidum, 504 h, read-out: Post-emergence effect against LOLRI in %
Description: as §1, §2, §3

[14] = system: POLCO; test: as above; assay type: in vivo, Fallopia convolvulus; conditions: Fallopia convolvulus, 504 h, 320 g/ha, read-out: Post-emergence effect against POLCO in %
Description: as §1, §2, §3

[15] = system: KCHSC; test: as above; assay type: in vivo; conditions: 504 h, read-out: Post-emergence effect against KCHSC in %
Experimental: as §2, with “plants. Tables 20a to 38c below show the effects/crop compatibilities of selected compounds of the general formula (I) on various harmful plants at an application rate corresponding to 20 to 320 g/ha, which were obtained by the trial procedure specified above.” for “plants.”

SMILES: COC(=O)C(OC)Oc1nn(-c2ccccc2)c(-c2ccc(F)nc2)c1Cl (stereo not drawn) [Example I-26]
- pest or weed control at 320 g/ha [1]: 90%
- pest or weed control at 80 g/ha [2]: 80%
- pest or weed control at 320 g/ha [2]: 90%
- pest or weed control at 320 g/ha [3]: 90%
- pest or weed control at 80 g/ha ([4]; 80 g/ha): 80%
- pest or weed control at 320 g/ha [4]: 90%
- plant injury at 20 g/ha [5]: 20%
- pest or weed control at 20 g/ha ([6]; 20 g/ha): 80%
- pest or weed control at 80 g/ha [6]: 80%
- pest or weed control at 320 g/ha [6]: 80%
- pest or weed control at 80 g/ha ([7]; 80 g/ha): 90%
- pest or weed control at 320 g/ha [7]: 90%
- pest or weed control at 20 g/ha ([8]; 20 g/ha): 80%
- pest or weed control at 80 g/ha ([8]; 80 g/ha): 80%
- pest or weed control at 320 g/ha ([8]; 320 g/ha): 80%
- pest or weed control at 80 g/ha [9]: 80%
- pest or weed control at 320 g/ha [9]: 90%
- pest or weed control at 20 g/ha [10]: 80%
- pest or weed control at 80 g/ha [10]: 80%
- pest or weed control at 320 g/ha [10]: 90%
- pest or weed control at 80 g/ha [11]: 90%
- pest or weed control at 320 g/ha [11]: 90%
- pest or weed control at 80 g/ha [12]: 80%
- pest or weed control at 320 g/ha [12]: 80%
- pest or weed control at 80 g/ha [13]: 90%
- pest or weed control at 320 g/ha [13]: 90%

SMILES: COC(=O)C(OC)Oc1nn(-c2ncccc2F)c(-c2cncc(F)c2)c1Br (stereo not drawn) [Example I-91]
- pest or weed control at 320 g/ha [14]: 80%
- pest or weed control at 20 g/ha ([1]; 20 g/ha): 80%
- pest or weed control at 80 g/ha ([1]; 80 g/ha): 80%
- pest or weed control at 320 g/ha [1]: 80%
- pest or weed control at 20 g/ha ([2]; 20 g/ha, visual rating about 3 weeks after treatment, read-out: Post-emergence effect against ECHCG): 80%
- pest or weed control at 80 g/ha [2]: 80%
- pest or weed control at 320 g/ha [2]: 90%
- pest or weed control at 80 g/ha ([3]; 80 g/ha): 80%
- pest or weed control at 320 g/ha [3]: 80%
- pest or weed control at 320 g/ha [4]: 90%
- pest or weed control at 80 g/ha [6]: 80%
- pest or weed control at 320 g/ha [6]: 80%
- pest or weed control at 320 g/ha [7]: 80%
- pest or weed control at 20 g/ha ([15]; 20 g/ha): 80%
- pest or weed control at 80 g/ha ([15]; 80 g/ha): 80%
- pest or weed control at 320 g/ha ([15]; 320 g/ha): 90%
- pest or weed control at 80 g/ha [9]: 90%
- pest or weed control at 320 g/ha [9]: 90%
- pest or weed control at 20 g/ha [10]: 80%
- pest or weed control at 80 g/ha [10]: 80%
- pest or weed control at 320 g/ha [10]: 80%
- pest or weed control at 80 g/ha [11]: 80%
- pest or weed control at 320 g/ha [11]: 80%
- pest or weed control at 20 g/ha ([12]; 20 g/ha): 80%
- pest or weed control at 80 g/ha [12]: 80%
- pest or weed control at 320 g/ha [12]: 80%
- pest or weed control at 80 g/ha [13]: 90%
- pest or weed control at 320 g/ha [13]: 90%
